Data set [1] relates to Hepatotoxicity. Briefly: Literature-mined compound from Fourches et al multi-species drug-induced liver injury (DILI) dataset, effect in humans. To be noted: human.
For data set [2], the system named is Hepatotoxicity. Nature of the data set: Literature-mined compound from Fourches et al multi-species drug-induced liver injury (DILI) dataset, effect in rodents. The following applies: rodentia.
Data set [3] concerns Hepatotoxicity. Nature of the data set: Literature-mined compound from Fourches et al multi-species drug-induced liver injury (DILI) dataset, effect in non-rodents.

The structures appear in SMILES notation. Where a SMILES comes first, the peptide text is derived from it. Bridges are numbered along the chain shown (N, C = ends). [ ]: non-standard residue; d: D form. The star is where a group is joined. Ileψ(thiazoline)Cys = CC[C@H](C)[C@H](N)C1=N[C@H](C(=O)*)CS1; dOrn = NCCC[C@@H](N)C(=O)O

Consider `CC(=O)Oc1ccccc1C(=O)O` [ASPIRIN], for which the Hepatotoxicity result in the data set with Hepatotoxicity [1], with Hepatotoxicity [2] and in the data set with Hepatotoxicity [3] was “drug-induced liver injury reported” each time.

As for `CC1=C(/C=C/C(C)=C/C=C/C(C)=C/C=C/C=C(C)/C=C/C=C(C)/C=C/C2=C(C)C(=O)[C@@H](O)CC2(C)C)C(C)(C)C[C@H](O)C1=O` [ASTAXANTHIN], the Hepatotoxicity entry in the data set with Hepatotoxicity [1] is reported as “no drug-induced liver injury reported”; in the data set with Hepatotoxicity [2] it was “drug-induced liver injury reported”; with Hepatotoxicity [3] it was “no drug-induced liver injury reported”.

In the case of `COC(=O)N[C@H](C(=O)N[C@@H](Cc1ccccc1)[C@@H](O)CN(Cc1ccc(-c2ccccn2)cc1)NC(=O)[C@@H](NC(=O)OC)C(C)(C)C)C(C)(C)C` [ATAZANAVIR], the Hepatotoxicity entry is “drug-induced liver injury reported” in the data set on Hepatotoxicity [1], “no drug-induced liver injury reported” in the data set on Hepatotoxicity [2] and “no drug-induced liver injury reported” with Hepatotoxicity [3].

Take `CC(C)NCC(O)COc1ccc(CC(N)=O)cc1` (stereo not given) [ATENOLOL]: the Hepatotoxicity entry in the data set with Hepatotoxicity [1] (Liver) is “drug-induced liver injury reported”; in the data set on Hepatotoxicity [2] (Liver) it was “no drug-induced liver injury reported”; in the data set with Hepatotoxicity [3] (Liver), “no drug-induced liver injury reported”.

Consider `CCCC1(CCC)CCC2(CCN(CCCN(CC)CC)C2)CC1` [ATIPRIMOD], for which the figures for the Hepatotoxicity result in the data set with Hepatotoxicity [1], in the data set on Hepatotoxicity [2] and in the data set on Hepatotoxicity [3] were “drug-induced liver injury reported”, “no drug-induced liver injury reported” and “no drug-induced liver injury reported”, respectively.

In the case of `CNCC[C@@H](Oc1ccccc1C)c1ccccc1.Cl` [ATOMOXETINE HYDROCHLORIDE], the Hepatotoxicity result with Hepatotoxicity [1] was “drug-induced liver injury reported”; in the data set on Hepatotoxicity [2], “no drug-induced liver injury reported”; in the data set with Hepatotoxicity [3], “no drug-induced liver injury reported”.

Turning to `CC(C)c1c(C(=O)Nc2ccccc2)c(-c2ccccc2)c(-c2ccc(F)cc2)n1CC[C@@H](O)C[C@@H](O)CC(=O)O` [ATORVASTATIN], the Hepatotoxicity entry with Hepatotoxicity [1] (Liver), in the data set with Hepatotoxicity [2] (Liver) and in the data set on Hepatotoxicity [3] (Liver) was “drug-induced liver injury reported” each time.

In the case of `CC(C)c1cc(C(C)C)c(CC(=O)NS(=O)(=O)Oc2c(C(C)C)cccc2C(C)C)c(C(C)C)c1` [AVASIMIBE], the Hepatotoxicity result in the data set on Hepatotoxicity [1] was “drug-induced liver injury reported”; in the data set with Hepatotoxicity [2], “drug-induced liver injury reported”; in the data set with Hepatotoxicity [3], “no drug-induced liver injury reported”.

On to `Nc1ncn([C@@H]2O[C@H](CO)[C@@H](O)[C@H]2O)c(=O)n1` [AZACITIDINE], for which the figures for the Hepatotoxicity result in the data set with Hepatotoxicity [1] (Liver), in the data set on Hepatotoxicity [2] (Liver) and with Hepatotoxicity [3] (Liver) were “drug-induced liver injury reported”, “drug-induced liver injury reported” and “no drug-induced liver injury reported”, respectively.

In the case of `Cn1cnc([N+](=O)[O-])c1Sc1ncnc2nc[nH]c12` [AZATHIOPRINE], the Hepatotoxicity entry in the data set on Hepatotoxicity [1] (Liver) is recorded as “drug-induced liver injury reported”; with Hepatotoxicity [2] (Liver), “drug-induced liver injury reported”; in the data set with Hepatotoxicity [3] (Liver) it was “no drug-induced liver injury reported”.

In the case of `CC[C@H]1OC(=O)[C@H](C)[C@@H](O[C@H]2C[C@@](C)(OC)[C@@H](O)[C@H](C)O2)[C@H](C)[C@@H](O[C@@H]2O[C@H](C)C[C@H](N(C)C)[C@H]2O)[C@](C)(O)C[C@@H](C)CN(C)[C@H](C)[C@@H](O)[C@]1(C)O` [AZITHROMYCIN], the Hepatotoxicity result is recorded as “drug-induced liver injury reported” with Hepatotoxicity [1], “no drug-induced liver injury reported” with Hepatotoxicity [2] and “no drug-induced liver injury reported” with Hepatotoxicity [3].

As to `CC1(C)S[C@@H]2[C@H](NC(=O)[C@H](NC(=O)N3CCNC3=O)c3ccccc3)C(=O)N2[C@H]1C(=O)O` [AZLOCILLIN], the Hepatotoxicity result was “drug-induced liver injury reported” with Hepatotoxicity [1], “no drug-induced liver injury reported” in the data set on Hepatotoxicity [2] and “no drug-induced liver injury reported” with Hepatotoxicity [3].

For the compound `C[C@H]1[C@H](NC(=O)/C(=N\OC(C)(C)C(=O)O)c2csc(N)n2)C(=O)N1S(=O)(=O)O` [AZTREONAM], the Hepatotoxicity result was “drug-induced liver injury reported” in the data set on Hepatotoxicity [1], “no drug-induced liver injury reported” in the data set with Hepatotoxicity [2] and “no drug-induced liver injury reported” in the data set on Hepatotoxicity [3].

Consider `CC[C@H](C)[C@H](N)C1=N[C@H](C(=O)N[C@@H](CC(C)C)C(=O)N[C@H](CCC(=O)O)C(=O)N[C@H](C(=O)N[C@H]2CCCCNC(=O)[C@H](CC(N)=O)NC(=O)[C@@H](CC(=O)O)NC(=O)[C@H](Cc3cnc[nH]3)NC(=O)[C@@H](Cc3ccccc3)NC(=O)[C@H]([C@@H](C)CC)NC(=O)[C@@H](CCCN)NC2=O)[C@@H](C)CC)CS1` [BACITRACIN] ({Ileψ(thiazoline)Cys}-L[dE]IK[dOrn]I[dF]H[dD]N; lactam 4-C), for which the Hepatotoxicity entry in the data set on Hepatotoxicity [1] is listed as “no drug-induced liver injury reported”; in the data set with Hepatotoxicity [2] it was “drug-induced liver injury reported”; with Hepatotoxicity [3], “no drug-induced liver injury reported”.

Turning to `NCC(CC(=O)O)c1ccc(Cl)cc1` (stereo not given) [BACLOFEN], the Hepatotoxicity entry with Hepatotoxicity [1] is listed as “drug-induced liver injury reported”; in the data set with Hepatotoxicity [2], “no drug-induced liver injury reported”; in the data set with Hepatotoxicity [3] it was “no drug-induced liver injury reported”.

Take `CCC1(CC)C(=O)NC(=O)NC1=O` [BARBITAL]: the Hepatotoxicity result is given as “no drug-induced liver injury reported” with Hepatotoxicity [1], “drug-induced liver injury reported” with Hepatotoxicity [2] and “no drug-induced liver injury reported” in the data set on Hepatotoxicity [3].

Regarding `Cn1c(CCCC(=O)O)nc2cc(N(CCCl)CCCl)ccc21` [BENDAMUSTINE], the Hepatotoxicity result was “drug-induced liver injury reported” with Hepatotoxicity [1], “no drug-induced liver injury reported” in the data set on Hepatotoxicity [2] and “no drug-induced liver injury reported” in the data set on Hepatotoxicity [3].

In the case of `O=C(O)COc1nn(Cc2ccccc2)c2ccccc12` [BENDAZAC], the Hepatotoxicity result with Hepatotoxicity [1] (Liver) is listed as “drug-induced liver injury reported”; in the data set on Hepatotoxicity [2] (Liver), “no drug-induced liver injury reported”; in the data set with Hepatotoxicity [3] (Liver), “no drug-induced liver injury reported”.

On to `CC(=O)Nc1ccc(OC(=O)c2ccccc2OC(C)=O)cc1` [BENORILATE], for which the Hepatotoxicity result in the data set with Hepatotoxicity [1] is recorded as “no drug-induced liver injury reported”; with Hepatotoxicity [2], “drug-induced liver injury reported”; in the data set with Hepatotoxicity [3], “no drug-induced liver injury reported”.

As for `CC(C(=O)O)c1ccc2oc(-c3ccc(Cl)cc3)nc2c1` (stereo not given) [BENOXAPROFEN], the Hepatotoxicity result with Hepatotoxicity [1] is “drug-induced liver injury reported”; in the data set with Hepatotoxicity [2] it was “drug-induced liver injury reported”; with Hepatotoxicity [3] it was “no drug-induced liver injury reported”.

With `CCc1oc2ccccc2c1C(=O)c1ccc(O)cc1` [BENZARONE], the values for the Hepatotoxicity entry in the data set on Hepatotoxicity [1], with Hepatotoxicity [2] and in the data set with Hepatotoxicity [3] were “drug-induced liver injury reported”, “drug-induced liver injury reported” and “no drug-induced liver injury reported”, respectively.

As for `CCc1oc2ccccc2c1C(=O)c1cc(Br)c(O)c(Br)c1` [BENZBROMARONE], the Hepatotoxicity result with Hepatotoxicity [1] is recorded as “drug-induced liver injury reported”; in the data set on Hepatotoxicity [2], “drug-induced liver injury reported”; in the data set with Hepatotoxicity [3], “no drug-induced liver injury reported”.

As to `CCc1oc2ccccc2c1C(=O)c1cc(I)c(O)c(I)c1` [BENZIODARONE], the Hepatotoxicity result is on record as “no drug-induced liver injury reported” with Hepatotoxicity [1], “drug-induced liver injury reported” in the data set on Hepatotoxicity [2] and “no drug-induced liver injury reported” in the data set with Hepatotoxicity [3].

Take `O=C(OOC(=O)c1ccccc1)c1ccccc1` [BENZOYL PEROXIDE]: the results for the Hepatotoxicity entry with Hepatotoxicity [1], in the data set on Hepatotoxicity [2] and in the data set with Hepatotoxicity [3] were “no drug-induced liver injury reported”, “drug-induced liver injury reported” and “no drug-induced liver injury reported”, respectively.

Turning to `CC#CCC(C)[C@H](O)/C=C/[C@@H]1[C@H]2c3cccc(CCCC(=O)O)c3O[C@H]2C[C@H]1O` (stereo not given in full) [BERAPROST], the Hepatotoxicity entry was “no drug-induced liver injury reported” in the data set with Hepatotoxicity [1], “drug-induced liver injury reported” with Hepatotoxicity [2] and “no drug-induced liver injury reported” in the data set with Hepatotoxicity [3].

On to `CC1=C(/C=C/C(C)=C/C=C/C(C)=C/C=C/C=C(C)/C=C/C=C(C)/C=C/C2=C(C)CCCC2(C)C)C(C)(C)CCC1` [BETA CAROTENE], for which the Hepatotoxicity entry with Hepatotoxicity [1], in the data set on Hepatotoxicity [2] and with Hepatotoxicity [3] was “drug-induced liver injury reported” each time.

As for `CC[C@H](CC[C@@H](C)[C@H]1CC[C@H]2[C@@H]3CC=C4C[C@@H](O)CC[C@]4(C)[C@H]3CC[C@]12C)C(C)C` [BETA-SITOSTEROL], the Hepatotoxicity entry in the data set on Hepatotoxicity [1] was “drug-induced liver injury reported”; with Hepatotoxicity [2] it was “drug-induced liver injury reported”; in the data set on Hepatotoxicity [3] it was “no drug-induced liver injury reported”.

On to `C[N+](C)(C)CC(=O)O` [BETAINE], for which the Hepatotoxicity entry in the data set on Hepatotoxicity [1] is reported as “no drug-induced liver injury reported”; with Hepatotoxicity [2] it was “drug-induced liver injury reported”; in the data set with Hepatotoxicity [3] it was “no drug-induced liver injury reported”.

For the compound `C[C@H]1C[C@H]2[C@@H]3CCC4=CC(=O)C=C[C@]4(C)[C@@]3(F)[C@@H](O)C[C@]2(C)[C@@]1(O)C(=O)CO` [BETAMETHASONE], the Hepatotoxicity entry with Hepatotoxicity [1] was “no drug-induced liver injury reported”; in the data set on Hepatotoxicity [2], “drug-induced liver injury reported”; in the data set on Hepatotoxicity [3], “no drug-induced liver injury reported”.

As for `C=C(C)[C@@H]1CC[C@]2(C(=O)O)CC[C@]3(C)[C@H](CC[C@@H]4[C@@]5(C)CC[C@H](O)C(C)(C)[C@@H]5CC[C@]43C)[C@@H]12` [BETULINIC ACID], the Hepatotoxicity result was “drug-induced liver injury reported” in the data set with Hepatotoxicity [1], “no drug-induced liver injury reported” in the data set on Hepatotoxicity [2] and “no drug-induced liver injury reported” with Hepatotoxicity [3].
